# From PubChem BioAssay AID2060338 (Molecular Pharmacology Branch, DTP, NCI, 2025)
# System: 556581-035-R-J1-PDC spheroids with HUVEC/MSC, viability
# Experiment: Anticancer human tumor 556581-035-R-J1-PDC patient-derived ovarian carcinoma cell line growth inhibition [IpAb]
# Settings: for IC50: curve of first compound; for viability, T/C: stronger effect = lower value
# Method in brief: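 Spheroids of 60% malignant cells, 25% HUVEC and 15% MSC were exposed to targeted agents combined with ipatasertib or abemaciclib. Doses started at or near clinical Cmax (10 microM when unknown) and fell in half-log steps.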
# 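Further: spheroids exposed to compounds for 7 days before readout.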
smiles,measurement,setting,value
Cn1nccc1Nc1nccc(-c2ccn(C(CO)c3ccc(Cl)c(F)c3)c(=O)c2)n1 (stereo not given) + CC(C)NCC(C(=O)N1CCN(c2ncnc3c2C(C)CC3O)CC1)c1ccc(Cl)cc1,IC50,second compound 0.1 µM,2480 nM
same,IC50,second compound 0.316 µM,2330 nM
same,IC50,second compound 1 µM,165 nM
same,IC50,second compound 3.16 µM,< 31.6 nM
same,IC50,second compound 10 µM,< 31.6 nM
same,"viability, T/C","second compound 0.1 µM, first compound 0.0316 µM",94.8%
same,"viability, T/C","second compound 0.1 µM, first compound 0.1 µM",75.4%
same,"viability, T/C","second compound 0.1 µM, first compound 0.316 µM",71.8%
same,"viability, T/C","second compound 0.1 µM, first compound 1 µM",62.4%
same,"viability, T/C","second compound 0.1 µM, first compound 3.16 µM",50.2%
same,"viability, T/C","second compound 0.1 µM, first compound 10 µM",31.3%
same,"viability, T/C","second compound 0.316 µM, first compound 0.0316 µM",61.6%
same,"viability, T/C","second compound 0.316 µM, first compound 0.1 µM",79.6%
same,"viability, T/C","second compound 0.316 µM, first compound 0.316 µM",60.1%
same,"viability, T/C","second compound 0.316 µM, first compound 1 µM",51.5%
same,"viability, T/C","second compound 0.316 µM, first compound 3.16 µM",52.2%
same,"viability, T/C","second compound 0.316 µM, first compound 10 µM",13.2%
same,"viability, T/C","second compound 1 µM, first compound 0.0316 µM",55.8%
same,"viability, T/C","second compound 1 µM, first compound 0.1 µM",61.6%
same,"viability, T/C","second compound 1 µM, first compound 0.316 µM",41%
same,"viability, T/C","second compound 1 µM, first compound 1 µM",29.3%
same,"viability, T/C","second compound 1 µM, first compound 3.16 µM",24.8%
same,"viability, T/C","second compound 1 µM, first compound 10 µM",9.12%
same,"viability, T/C","second compound 3.16 µM, first compound 0.0316 µM",48.4%
same,"viability, T/C","second compound 3.16 µM, first compound 0.1 µM",36.4%
same,"viability, T/C","second compound 3.16 µM, first compound 0.316 µM",38.1%
same,"viability, T/C","second compound 3.16 µM, first compound 1 µM",22.7%
same,"viability, T/C","second compound 3.16 µM, first compound 3.16 µM",11.6%
same,"viability, T/C","second compound 3.16 µM, first compound 10 µM",5.62%
same,"viability, T/C","second compound 10 µM, first compound 0.0316 µM",35.7%
same,"viability, T/C","second compound 10 µM, first compound 0.1 µM",31.3%
same,"viability, T/C","second compound 10 µM, first compound 0.316 µM",27.8%
same,"viability, T/C","second compound 10 µM, first compound 1 µM",17.6%
same,"viability, T/C","second compound 10 µM, first compound 3.16 µM",12.3%
same,"viability, T/C","second compound 10 µM, first compound 10 µM",1.97%
CC(C)(C)c1cnc(CSc2cnc(NC(=O)C3CCNCC3)s2)o1 + CCN1CCN(Cc2ccc(Nc3ncc(F)c(-c4cc(F)c5nc(C)n(C(C)C)c5c4)n3)nc2)CC1,IC50,second compound 0.01 µM,154 nM
same,IC50,second compound 0.0316 µM,114 nM
same,IC50,second compound 0.1 µM,67.8 nM
same,IC50,second compound 0.316 µM,45.4 nM
same,IC50,second compound 1 µM,13.1 nM
same,"viability, T/C","second compound 0.01 µM, first compound 0.00949 µM",103%
same,"viability, T/C","second compound 0.01 µM, first compound 0.03 µM",122%
same,"viability, T/C","second compound 0.01 µM, first compound 0.0949 µM",84.5%
same,"viability, T/C","second compound 0.01 µM, first compound 0.3 µM",2.06%
same,"viability, T/C","second compound 0.01 µM, first compound 0.949 µM",2.48%
same,"viability, T/C","second compound 0.01 µM, first compound 3 µM",2.1%
same,"viability, T/C","second compound 0.0316 µM, first compound 0.00949 µM",115%
same,"viability, T/C","second compound 0.0316 µM, first compound 0.03 µM",103%
same,"viability, T/C","second compound 0.0316 µM, first compound 0.0949 µM",59.2%
same,"viability, T/C","second compound 0.0316 µM, first compound 0.3 µM",5.51%
same,"viability, T/C","second compound 0.0316 µM, first compound 0.949 µM",1.33%
same,"viability, T/C","second compound 0.0316 µM, first compound 3 µM",0.97%
same,"viability, T/C","second compound 0.1 µM, first compound 0.00949 µM",93.8%
same,"viability, T/C","second compound 0.1 µM, first compound 0.03 µM",93.9%
same,"viability, T/C","second compound 0.1 µM, first compound 0.0949 µM",31.8%
same,"viability, T/C","second compound 0.1 µM, first compound 0.3 µM",1.38%
same,"viability, T/C","second compound 0.1 µM, first compound 0.949 µM",3.13%
same,"viability, T/C","second compound 0.1 µM, first compound 3 µM",1.36%
same,"viability, T/C","second compound 0.316 µM, first compound 0.00949 µM",83.5%
same,"viability, T/C","second compound 0.316 µM, first compound 0.03 µM",73.7%
same,"viability, T/C","second compound 0.316 µM, first compound 0.0949 µM",7.97%
same,"viability, T/C","second compound 0.316 µM, first compound 0.3 µM",1.31%
same,"viability, T/C","second compound 0.316 µM, first compound 0.949 µM",2.8%
same,"viability, T/C","second compound 0.316 µM, first compound 3 µM",3.38%
same,"viability, T/C","second compound 1 µM, first compound 0.00949 µM",55.7%
same,"viability, T/C","second compound 1 µM, first compound 0.03 µM",35.4%
same,"viability, T/C","second compound 1 µM, first compound 0.0949 µM",3.81%
same,"viability, T/C","second compound 1 µM, first compound 0.3 µM",1.87%
same,"viability, T/C","second compound 1 µM, first compound 0.949 µM",0.65%
same,"viability, T/C","second compound 1 µM, first compound 3 µM",1.32%
